{"source": "patent US10844404B2", "about": "“Engineered microorgansims and methods for improved crotyl alcohol production” (priority 2015, dated 2020)", "key": {"[1]": {"test_system": "E. coli ATCC 8739 C strains", "test": "Crotyl alcohol tolerance study (Bioscreen growth curves, turbidity OD420-580)", "assay_type": "cell-based", "details": "138 mM crotyl alcohol, FIG. 5B", "method": "(§1) E. coli Str. K-12 substr. MG1655 strains 48 (wildtype) and 3-FEDB with multiple deletions (ΔyahkΔadhPΔyqhDΔadhE); and E. coli ATCC 8739 C strains (wildtype) and its variants 3-FISC (ΔadhE), 3-GAEB (ΔadhEΔyqhD), 3-GBOG (ΔadhEΔyqhDΔadhP), and 3-GDOB (ΔadhEΔyqhDΔadhPΔyahK) were struck for single colonies on LB agar from a glycerol freezer stock. Four single colonies per strain were picked and inoculated into 1 mL LB+55.7 mM glucose in deep well 96 well plates and grown at 37° C. overnight (16-20 hours). The optical density of the overnight culture was taken and cells were normalized to OD600=1 and spun down. Cells were resuspended in 1 mL of M9 minimal media+11.1 mM glucose. Cells were then spun down and washed again in 1 mL M9+11.1 mM glucose. Bioscreen honeycomb 2 plates (Cat. No. 9502550) were filled with 198 μL M9+11.1 mM glucose or M9+11.1 mM glucose+138 mM crotyl alcohol (Sigma-Aldrich). 2 μL washed cells were added to each well at N=4. Bioscreen honeycomb 2 plates were loaded into a bioscreen C MBR (Oy Growth Curves Ab Ltd) machine, an incubator system set to read turbidity at OD420-580 every 15 minutes at 37° C. For growth curve data, see FIG. 4A (E. coli Str. K-12 substr. MG1655 strains) and FIG. 4B (E. coli ATCC 8739 C variant strains)."}, "[2]": {"test_system": "E. coli Str. K-12 substr. MG1655 strains", "test": "Crotyl alcohol tolerance study (Bioscreen growth curves, turbidity OD420-580)", "assay_type": "cell-based", "details": "138 mM crotyl alcohol, M9+11.1 mM glucose, 37° C., FIG. 4B", "method": "as §1"}}}
{"molecule": "CC=CCO", "note": "[crotyl alcohol, but-2-en-1-ol]", "values": [{"measurement": "growth in the presence of crotyl alcohol", "setting": "[1]; M9+11.1 mM glucose, 37° C., wild-type or parental strain", "value": "growth is inhibited"}, {"measurement": "growth in the presence of crotyl alcohol", "setting": "[1]; strain 3-FIDC (ΔadhE)", "value": "inhibited"}, {"measurement": "growth in the presence of crotyl alcohol", "setting": "[1]; strain 3-GAEB (ΔadhEΔyqhD)", "value": "inhibited"}, {"measurement": "growth in the presence of crotyl alcohol", "setting": "[1]; strain 3-GBOB (ΔadhEΔyqhDΔadhP)", "value": "while showing an initial lag grew on crotyl alcohol"}, {"measurement": "growth in the presence of crotyl alcohol", "setting": "[1]; strain 3-GBOG (ΔyahKΔadhPΔyqhDΔadhE)", "value": "while showing an initial lag grew on crotyl alcohol"}, {"measurement": "growth in the presence of crotyl alcohol", "setting": "[2]; strain 3-FEDB (ΔyahKΔadhPΔyqhDΔadhE)", "value": "while showing an initial lag grew on crotyl alcohol"}, {"measurement": "growth in the presence of crotyl alcohol", "setting": "[2]; wild-type or parental strain (48)", "value": "growth is inhibited"}]}
